Results taken from US20230022796A1 (Merck Patent GmbH, priority 2019, published 2023).

How the values were obtained:
[1] = test system: CHO cell line producing mAb2; assay: Glycosylation profile (UPLC-MS of released glycans) of mAb2 from fed-batch; type: cell-based, Chinese hamster; conditions: mAb2, 400 μM additive, day 12
Method: (§1) Glycosylation patterns were analyzed by ultra-performance liquid chromatography coupled to a mass spectrometer (UPLC-MS). The purified antibody was denaturated and the glycans were released from the antibody by digestion with peptide N-glycosidase F (PNGase F) followed by labeling the glycans with the GlycoWorks™ RapiFluor-MS™ N-Glycan Kit according to the manufacturer protocol. For the analysis, an UPLC glycan column (2.1×150 mm) that separated the glycans according to their […] was used. The chromatography was performed at 45° C. using 50 mM ammonium formate (A), pH 4.4 solution and an acetonitrile (B) gradient. In detail, at the beginning the ratio of A:B was 20:80 (0 min) and changed to 27:73 at 3 min and 37:63 at 35 min at a flow rate of 0.5 ml/min. From 36.5 min to 39.5 min only A was used as mobile phase and the flow rate was reduced to 0.2 ml/min. Subsequently, the ratio was changed to 20% A:80% B and the flowrate was increased to 0.5 ml/min at 43.1 min until the end of the process at 55 min. The detection was performed by a fluorescence detector with an excitation wavelength of 265 nm and an emission wavelength of 425 nm. The identification of the glycan structures was performed by MS using positive electro spray ionization (ESI), which was calibrated every 30 s with a standard.
(§2) Four different clones of Chinese hamster ovary (CHO) cells expressing three different monoclonal antibodies (mAb) and a fusion protein were tested. Cells were cultivated in spin tubes between 14 and 20 days at 37° C., 5% CO2, and 80% humidity. As starting cell density, 3×10^5 cells/mL in 30 mL Cellvento®4CHO media (pH 7.0±0.1) was used for clone 1 and 2 producing mAb1 and mAb2, respectively (Cellvento® Platform). Cells were cultivated at an agitation of 320 rpm and were fed on day 3, 5, 10, 12 and 14 with 3% volume of Cellvento® 4Feed (v/v) and on day 7 with 6% (v/v) of the feed. Clone 3 and 4 producing mAb3 and a fusion protein were inoculated at the same cell density in 30 mL Ex-Cell® Advanced Media (pH 7.2±0.1) while agitation was set to 230 rpm (Ex-Cell® Platform). Clones 3 and 4 were fed with […] Advanced Feed (v/v) on day 3, 5, 7, 10, 12, 14 and 17. […] The pH of all Cellvento® feeds was adjusted to 7.0±0.1 and Ex-Cell® Feeds were adjusted to 8.5±0.1. The glucose level was maintained above 4 g/L by adding a specific amount of a 400 g/L glucose stock solution on demand to up to 6 g/L during the week and up to 13 g/L over the weekend. Glucose and titer were detected in the supernatant with the bioprocess analyzer CEDEX Bio HT (Roche, Mannheim, Germany).
(§3) To investigate the glycosylation profile during the fed-batch experiment samples were centrifugated and antibodies and Fc-fusion proteins were purified from the cell culture supernatant using protein A PhyTips® (PhyNexus Inc, San Jose, Calif.). Glycosylation patterns were analyzed as described by ultra-performance liquid chromatography coupled to a mass spectrometer (UPLC-MS) using the GlycoWorks™ RapiFluor-MS™ N-Glycan Kit.
Glycosylation profile on day 12 was visualized since harvest of recombinant produced proteins on day 12 is common. Quantification of the glycans was obtained using the relative peak area of the fluorescence signal. Almost all peaks were assigned to glycan structures according to their mass. Unknown glycan structures and signals without mass detection were summarized as unknown species (not shown). […]

[2] = test system: CHO cell line producing a fusion protein; assay: Glycosylation profile (UPLC-MS of released glycans) of fusion protein from fed-batch; type: cell-based, Chinese hamster; conditions: 400 μM additive, day 12
Method: as §1, §2, §3
Glycosylation profile on day 12 was visualized since harvest of recombinant produced proteins on day 12 is common. Quantification of the glycans was obtained using the relative peak area of the fluorescence signal. Almost all peaks were assigned to glycan structures according to their mass. Unknown glycan structures and signals without mass detection were summarized as unknown species (not shown). Four different clones of Chinese hamster ovary (CHO) cells expressing three different monoclonal antibodies (mAb) and a fusion protein were tested. […] The known positive control achieved a 14% fucosylation level on day 12 by increasing the afucosylation to 78%. The same amount of afucosylation compared to the known fucose-analogue acetylated 2F-Fucose was only achieved by clone 3 expressing mAb3 leading to about 34% afucosylation on day 12 (FIG. 8 C).

SMILES: C[C@@H]1SC(O)[C@@H](O)[C@H](O)[C@@H]1O (some centres unmarked)
- afucosylation [1]: 60%
- core-fucosylation [1]: 8%
- afucosylation [2]: 52%
- incorporation of fucose analogue (% of the glycans) [2]: 39%
- reduction of core-fucosylation compared to the control [2]: about 63%
